Assay results published in patent US20250304620A1, “ANTIMICROBIAL PEPTIDE AND APPLICATION THEREOF” (priority 2023, published 2025).
In brackets after ≈: the same amount, converted by molar mass. Where two headings read alike, the source gives them in different places. Non-standard residues stand in square brackets, D forms with d. Residues, ends and D or L forms follow the SMILES beside them. PEG200 = polyethylene glycol 200, conjugated to the C-terminus; PEG500 = polyethylene glycol 500, conjugated to the C-terminus; 2Nal = N[C@@H](Cc1ccc2ccccc2c1)C(=O)O; d2Nal = N[C@H](Cc1ccc2ccccc2c1)C(=O)O

Columns and labels:
[1] = tested on: Shigella flexneri ATCC 12022; test: MIC against clinically common bacterial strain; format: cell-based
Excerpt: (§1) According to the Standards of Clinical and Laboratory Standards Institute (CLSI) of the USA for antimicrobial drug susceptibility test operation standards, the micronutrient serial twofold dilution method was used further determine MICs of 30 AMPs (S/N: LV-1 to LV-30) 10 clinically common sensitive strains and 6 fungi in clinical practice. The experiment was repeated 5 times in parallel.

[2] = tested on: carbapenem-resistant Pseudomonas aeruginosa (CRPA); format: cell-based
Excerpt: (§2) According to the Standards of Clinical and Laboratory Standards Institute (CLSI) of the USA for antimicrobial drug susceptibility test operation standards, the micronutrient serial twofold dilution method was used further determine MICs of the antimicrobial peptides LV-1 to LV-30 against 5 clinically common drug-resistant bacterial strains. The experiment was repeated 5 times in parallel. […] The tested drug-resistant strains included Methicillin-resistant Staphylococcus aureus (MRSA), carbapenem-resistant Escherichia coli (CREC), vancomycin-resistant Enterococcus (VRE), carbapenem-resistant Pseudomonas aeruginosa (CRPA), and carbapenem-resistant Klebsiella pneumoniae (CRKP).

[3] = tested on: vancomycin-resistant Enterococcus (VRE); format: cell-based
Excerpt: as §2

[4] = tested on: Methicillin-resistant Staphylococcus aureus (MRSA); format: cell-based
Excerpt: as §2

[5] = tested on: carbapenem-resistant Klebsiella pneumoniae (CRKP); format: cell-based
Excerpt: as §2

[6] = tested on: carbapenem-resistant Escherichia coli (CREC); format: cell-based
Excerpt: as §2

[7] = Serum stability assay (residual level by RP-HPLC); conditions: human
[8] = tested on: Staphylococcus aureus (NRS 384); test: microbe, parasite or virus in culture; format: cell-based
Procedure, shortened: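 CLSI broth microdilution with serial twofold dilutions gave MICs against S. aureus NRS 384, with 5 parallel replicates. Levofloxacin and the AMP Cbf-K16 served as positive controls.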

[9] = tested on: Staphylococcus aureus (NRS 384)
Description: Trypsin (250 U/mg, pH=8.0) and AMPs (LV-1 to LV-30) were mixed in a ratio of 1:10 (w/w) and added to a reaction buffer (0.2 M sodium phosphate, 1 mM CaCl2), pH 7.5), and then incubated at 37° C. for 3 h.

[10] = tested on: Candida albicans ATCC MYA-2876; format: cell-based
Excerpt: as §1

Enterococcus ATCC 29212 = format: cell-based
Excerpt: as §1

[11] = tested on: Klebsiella pneumoniae ATCC 700603; format: cell-based
Excerpt: as §1

Candida utilis ATCC 9950 = format: cell-based
Excerpt: as §1

[12] = tested on: Corynebacterium ATCC 7715; format: cell-based
Excerpt: as §1

[13] = tested on: Escherichia coli ATCC 25922; format: cell-based
Excerpt: as §1

[14] = tested on: Pseudomonas aeruginosa ATCC 27853; format: cell-based
Excerpt: as §1

[15] = tested on: Staphylococcus aureus ATCC 25923; format: cell-based
Excerpt: as §1

Candida krusei ATCC 6258 = format: cell-based
Excerpt: as §1

[16] = tested on: Trichophyton ATCC MYA-4438; format: cell-based
Excerpt: as §1

[17] = tested on: Candida tropicalis ATCC 750; format: cell-based
Excerpt: as §1

[18] = tested on: Bacillus subtilis ATCC 6633; format: cell-based
Excerpt: as §1

[19] = tested on: Salmonella typhimurium ATCC 14028; format: cell-based
Excerpt: as §1

[20] = tested on: Serratia marcescens ATCC 29021; format: cell-based
Excerpt: as §1

[21] = tested on: Candida glabrata ATCC 15126; format: cell-based
Excerpt: as §1

[22] = Staphylococcus aureus (NRS 384)
[23] = MIC vs Staphylococcus aureus (NRS 384) after trypsin treatment 1:10 (w/w), 37° C., 3 h

CC(=O)N[C@H](CCCNC(=N)N)C(=O)N[C@H](CCCNC(=N)N)C(=O)N[C@H](CC(C)C)C(=O)N[C@H](CC(C)C)C(=O)N[C@H](Cc1ccc2ccccc2c1)C(=O)N[C@H](CCCNC(=N)N)C(=O)N[C@H](CC(C)C)C(=O)N[C@H](CCCNC(=N)N)C(=O)N[C@H](Cc1ccc2ccccc2c1)C(=O)N[C@H](CCCNC(=N)N)C(=O)N[C@H](CCCNC(=N)N)C(N)=O [LV-1] (Ac-[dR][dR][dL][dL][d2Nal][dR][dL][dR][d2Nal][dR][dR]-NH2)
MIC Shigella flexneri ATCC 12022 [1]: 4 µg/mL (≈ 2.31 µM)
MIC CRPA ([2]; carbapenem-resistant (CRPA)): 4 µg/mL (≈ 2.31 µM)
MIC VRE [3]: 4 µg/mL (≈ 2.31 µM)
MIC MRSA ([4]; Methicillin-resistant): 4 µg/mL (≈ 2.31 µM)
MIC CRKP ([5]; carbapenem-resistant (CRKP)): 2 µg/mL (≈ 1.16 µM)
MIC CREC ([6]; carbapenem-resistant (CREC)): 2 µg/mL (≈ 1.16 µM)
remaining at 12 h, 0.91 mg/mL [7]: 98.5%
MIC against Staphylococcus aureus (NRS 384) ([8]; NRS 384): 1 µg/mL (≈ 0.578 µM)
Trypsin MIC ([9]; NRS 384, 3 h): 1 µg/mL
MIC Candida albicans ATCC MYA-2876 [10]: 8 µg/mL (≈ 4.62 µM)
MIC Enterococcus ATCC 29212 (Enterococcus ATCC 29212): 2 µg/mL (≈ 1.16 µM)
MIC Klebsiella pneumoniae ATCC 700603 [11]: 4 µg/mL (≈ 2.31 µM)
MIC Candida utilis ATCC 9950 (Candida utilis ATCC 9950): 8 µg/mL (≈ 4.62 µM)
MIC Corynebacterium ATCC 7715 [12]: 2 µg/mL (≈ 1.16 µM)
MIC Escherichia coli ATCC 25922 [13]: 1 µg/mL (≈ 0.578 µM)
MIC Pseudomonas aeruginosa ATCC 27853 [14]: 1 µg/mL (≈ 0.578 µM)
MIC Staphylococcus aureus ATCC 25923 [15]: 1 µg/mL (≈ 0.578 µM)
MIC Candida krusei ATCC 6258 (Candida krusei ATCC 6258): 4 µg/mL (≈ 2.31 µM)
MIC Trichophyton ATCC MYA-4438 [16]: 8 µg/mL (≈ 4.62 µM)
MIC Candida tropicalis ATCC 750 [17]: 4 µg/mL (≈ 2.31 µM)
MIC Bacillus subtilis ATCC 6633 [18]: 4 µg/mL (≈ 2.31 µM)
MIC Salmonella typhimurium ATCC 14028 [19]: 2 µg/mL (≈ 1.16 µM)
MIC Serratia marcescens ATCC 29021 [20]: 2 µg/mL (≈ 1.16 µM)
MIC Candida glabrata ATCC 15126 [21]: 8 µg/mL (≈ 4.62 µM)

Ac-RKLLXRLKXRK-PEG200 [LV-26] (Ac-RKLL[2Nal]RLK[2Nal]RK-PEG200) [polyethylene glycol 200 conjugated to C-terminal; X=3-(2-naphthyl)-alanine]
MIC Shigella flexneri ATCC 12022 [1]: 4 µg/mL
MIC CRPA ([2]; drug-resistant strain CRPA): 4 µg/mL
MIC VRE ([3]; drug-resistant strain VRE): 2 µg/mL
MIC MRSA ([4]; drug-resistant strain MRSA): 4 µg/mL
MIC CRKP ([5]; drug-resistant strain CRKP): 2 µg/mL
MIC CREC ([6]; drug-resistant strain CREC): 8 µg/mL
MIC against Staphylococcus aureus (NRS 384) [8, 22]: 1 µg/mL
Trypsin MIC [9, 23]: 1 µg/mL
MIC Candida albicans ATCC MYA-2876 [10]: 8 µg/mL
MIC Enterococcus ATCC 29212 (Enterococcus ATCC 29212): 8 µg/mL
MIC Klebsiella pneumoniae ATCC 700603 [11]: 4 µg/mL
MIC Candida utilis ATCC 9950 (Candida utilis ATCC 9950): 16 µg/mL
MIC Corynebacterium ATCC 7715 [12]: 2 µg/mL
MIC Escherichia coli ATCC 25922 [13]: 2 µg/mL
MIC Pseudomonas aeruginosa ATCC 27853 [14]: 4 µg/mL
MIC Staphylococcus aureus ATCC 25923 [15]: 1 µg/mL
MIC Candida krusei ATCC 6258 (Candida krusei ATCC 6258): 4 µg/mL
MIC Trichophyton ATCC MYA-4438 [16]: 16 µg/mL
MIC Candida tropicalis ATCC 750 [17]: 8 µg/mL
MIC Bacillus subtilis ATCC 6633 [18]: 4 µg/mL
MIC Salmonella typhimurium ATCC 14028 [19]: 2 µg/mL
MIC Serratia marcescens ATCC 29021 [20]: 8 µg/mL
MIC Candida glabrata ATCC 15126 [21]: 8 µg/mL

Ac-RKLLXRLKXRK-PEG500 [LV-27] (Ac-RKLL[2Nal]RLK[2Nal]RK-PEG500) [polyethylene glycol 500 conjugated to C-terminal; X=3-(2-naphthyl)-alanine]
MIC Shigella flexneri ATCC 12022 [1]: 2 µg/mL
MIC CRPA ([2]; drug-resistant strain CRPA): 4 µg/mL
MIC VRE ([3]; drug-resistant strain VRE): 8 µg/mL
MIC MRSA ([4]; drug-resistant strain MRSA): 8 µg/mL
MIC CRKP ([5]; drug-resistant strain CRKP): 4 µg/mL
MIC CREC ([6]; drug-resistant strain CREC): 4 µg/mL
MIC against Staphylococcus aureus (NRS 384) [8, 22]: 1 µg/mL
Trypsin MIC [9, 23]: 1 µg/mL
MIC Candida albicans ATCC MYA-2876 [10]: 8 µg/mL
MIC Enterococcus ATCC 29212 (Enterococcus ATCC 29212): 2 µg/mL
MIC Klebsiella pneumoniae ATCC 700603 [11]: 8 µg/mL
MIC Candida utilis ATCC 9950 (Candida utilis ATCC 9950): 16 µg/mL
MIC Corynebacterium ATCC 7715 [12]: 8 µg/mL
MIC Escherichia coli ATCC 25922 [13]: 1 µg/mL
MIC Pseudomonas aeruginosa ATCC 27853 [14]: 1 µg/mL
MIC Staphylococcus aureus ATCC 25923 [15]: 1 µg/mL
MIC Candida krusei ATCC 6258 (Candida krusei ATCC 6258): 8 µg/mL
MIC Trichophyton ATCC MYA-4438 [16]: 8 µg/mL
MIC Candida tropicalis ATCC 750 [17]: 4 µg/mL
MIC Bacillus subtilis ATCC 6633 [18]: 2 µg/mL
MIC Salmonella typhimurium ATCC 14028 [19]: 2 µg/mL
MIC Serratia marcescens ATCC 29021 [20]: 4 µg/mL
MIC Candida glabrata ATCC 15126 [21]: 8 µg/mL
